Assay results from patent US11819572B2, “Treatment of pain by administration of sustained-release liposomal anesthetic compositions” (Pacira Pharmaceuticals, Inc., priority 2020, dated 2023).

Experiments:
[1] = Bupivacaine plasma pharmacokinetics after intra-arterial (IA) administration in Beagle dogs; type: in vivo; conditions: Beagle dog plasma bupivacaine, 0.1 mg/kg, Day 1, mean
Description: b) Intra-Arterial Administration to Beagle Dogs of (a) Bupivacaine and (b) EXPAREL®:
(§1) The study was conducted in a manner analogous to the intravenous administration study described in a) above.

Beagle dogs = assay: Intravenous administration to Beagle dogs of bupivacaine and EXPAREL: adverse events and cardiology; type: in vivo, Beagle dog
Description: a) Intravenous (IV) Administration to Beagle Dogs of (a) Bupivacaine and (b) EXPAREL®:
Free bupivacaine was administered to dogs in an amount equivalent to 0.75 mg/kg and to 1.5 mg/kg of bupivacaine. Three dogs (one that was administered 0.75 mg/kg, and two that were administered 1.5 mg/kg) experienced side-effects such as convulsions, tremors, increased respiration and/or emesis (Table 1). In a separate experiment, EXPAREL® was administered to dogs in the same amount as above. […] A 3-fold higher dose of EXPAREL® (that is, a dose equivalent to 4.5 mg/kg of bupivacaine) was then administered to the dogs.

rats = assay: Intravenous administration to rats of bupivacaine and EXPAREL: tolerability; type: in vivo
Description: The following is a summary of the results from two pre-clinical studies that compared the tolerability and PK profiles for non-liposomal bupivacaine vs EXPAREL®
Improved toleration was attributed to the reduced peak plasma levels of bupivacaine observed in animals following administration of EXPAREL® vs non-liposomal bupivacaine. 1) Intravenous (IV) Administration to Rats of (a) Bupivacaine and (b) EXPAREL®:
Free bupivacaine was administered to three rats in an amount equivalent to 1.0, 1.75 and 2.5 mg/kg of bupivacaine. Two rats died, corresponding to a 67% mortality rate. In a separate experiment, EXPAREL® was administered to rats in an amount equivalent to 2.5, 5.0 and 7.5 mg/kg of bupivacaine. […] The NOELs (no observable effect levels) determined for EXPAREL® and for free bupivacaine in this study were 7.5 mg/kg and 1.0 mg/kg, respectively.

in vivo = conditions: beagle, dog, iv, 1.5 mg/kg
Description: Without wishing to be held to any particular mechanism or theory, it is believed that the observed toxicity differences above are attributable to the differences in plasma bupivacaine levels of the groups of dogs receiving free bupivacaine and EXPAREL®, respectively. […] Similarly, the Cmax for dogs receiving the same dose as in (i)—i.e., (1.5 mg/kg) of EXPAREL®—was clearly lower than that of dogs receiving free bupivacaine. […] The difference in exposure between the two groups may also be seen by comparing the respective values of Cmax/dose. […] In contrast with the above differences in Cmax in the two groups, the total AUC/dose was similar in dogs receiving EXPAREL® as compared to dogs receiving free bupivacaine. In particular, the values for female dogs were 751 (ng-hr/mL)/(mg/kg) for EXPAREL® (1.5 mg/kg dose), 674 (ng-hr/mL)/(mg/kg) for EXPAREL® (4.5 mg/kg dose), and 738 (ng-hr/mL)/(mg/kg)) for free bupivacaine. The values for male dogs were 1510 (ng-hr/mL)/(mg/kg) for EXPAREL® (1.5 mg/kg dose), 826 (ng-hr/mL)/(mg/kg) for EXPAREL® (4.5 mg/kg dose), and 879 (ng-hr/mL)/(mg/kg) for free bupivacaine.
as §1

[2] = Beagle dogs, dose 0.75, 1.5 mg/kg (Group 2)
[3] = three rats, 1.0, 1.75 and 2.5 mg/kg of bupivacaine

With CCCCN1CCCCC1C(=O)Nc1c(C)cccc1C (stereo not drawn) [free bupivacaine, bupivacaine] the AUC(0-t) ([1]; Female) was 62.6 ng·h/mL, the “AUC(0 − t)/D” value ([1]; Female) was 626 ng·h/mL/mg/kg and the Cmax ([1]; Female) was 187 ng/mL. It also gave a Cmax/D ([1]; Female) of 1870 ng·kg/mL/mg, a half-life ([1]; Female) of 16 min and an AUC(0-t) ([1]; Male) of 71.1 ng·h/mL. The “AUC(0 − t)/D” value ([1]; Male) was 711 ng·h/mL/mg/kg, the Cmax ([1]; Male) was 205 ng/mL and the Cmax/D ([1]; Male) was 2050 ng·kg/mL/mg. The half-life ([1]; Male) was 15.8 min, the “Dogs that experienced side-effects such as convulsions, tremors, increased respiration and/or emesis” value (Beagle dogs; 0.75 mg/kg) was “one” and the “Dogs that experienced side-effects such as convulsions, tremors, increased respiration and/or emesis” value (Beagle dogs; 0.75 mg/kg and 1.5 mg/kg of bupivacaine (all)) was “Three dogs”. The “Dogs that experienced side-effects such as convulsions, tremors, increased respiration and/or emesis” value (Beagle dogs; 1.5 mg/kg) was “two”, the “Cardiology: Change in heart rate (BMP, avg)” value (Beagle dogs; [2]) was 56 ± 31 BMP and the “No. of animals exhibiting clinical symptoms: Increased respiration” value (Beagle dogs; [2]) was 2. For the same molecule, the “No. of animals exhibiting clinical symptoms: Sustained convulsions” value (Beagle dogs; [2]) was 1, the “No. of animals exhibiting clinical symptoms: Tremors” value (Beagle dogs; [2]) was 1 and the “No. of animals exhibiting clinical symptoms: Unsustained convulsions” value (Beagle dogs; [2]) was 0. For the same molecule, the “No. of animals exhibiting clinical symptoms: Vomiting” value (Beagle dogs; [2]) was 2, the “NOEL (no observable effect level)” value (rats; rats) was 1.0 mg/kg and the Mortality rate (rats; [3]) was 67%. The Rats that died (rats; [3]) was “Two rats died”, the AUC(0-t) (in vivo; female) was 1110 ng·h/mL and the “AUC(0 − t)/D” value (in vivo; female) was 738 ng·h/mL/mg/kg. For the same molecule, the Cmax (in vivo; female) was 2050 ng/mL, the Cmax/D (in vivo; female) was 1370 ng·kg/mL/mg and the Cmax/dose (in vivo; female) was 1.37. For the same molecule, the half-life (in vivo; female) was 28.4 min, the “total AUC/dose” value (in vivo; female) was 738 (ng-hr/mL)/(mg/kg) and the AUC(0-t) (in vivo; male) was 1320 ng·h/mL. For the same molecule, the “AUC(0 − t)/D” value (in vivo; male) was 879 ng·h/mL/mg/kg, the Cmax (in vivo; male) was 2750 ng/mL and the Cmax/D (in vivo; male) was 1830 ng·kg/mL/mg. For the same molecule, the Cmax/dose (in vivo; male) was 1.83, the half-life (in vivo; male) was 31.2 min and the “total AUC/dose” value (in vivo; male) was 879 (ng-hr/mL)/(mg/kg).
